# Measured values from PubChem BioAssay AID488825 (NMMLSC, 2010).
# System: S. cerevisiae CIT2-GFP strain, flow cytometry fluorescence, 3 h
# Assay: yeast TOR pathway CIT2-GFP reporter analogs – flow cytometry, cherry pick 3, dose response, SAR follow-up (AID 488825)
smiles,measurement,value
CNc1nc(N)c([N+](=O)[O-])c(Nc2cccc(Cl)c2)n1,EC50,5.72 µM
